Tests used:
[1] = target: T1, SLC-1 expression CHO cell membrane fraction (MCH receptor) (UniProt Q99705); assay: Antagonistic activity of test compound using GTP γ S binding assay; assay type: biochemical, human/rat; conditions: inhibition of MCH-stimulated [35S]-GTPγS binding, 25° C., 1 hr, read-out: Inhibitory activity (IC50: nM)
T1 construct: full-length coding regions in pAKKO-111H
Procedure: Using human SLC-1 expression CHO cell clone 57 obtained in Reference Example 1-10 and rat SLC-1 expression CHO cell clone 44 obtained in Reference Example 1-4, membrane fractions were prepared by the following method. In phosphate buffered saline (pH 7.4) supplemented with 5 mM EDTA (ethylenediamine tetraacetic acid) were suspended human and rat SLC-1 expression CHO cells (1×10^8) and centrifuged. Homogenate buffer (10 ml, 10 mM NaHCO3, 5 mM EDTA, pH 7.5) was added to the pellets of the cells and, using Polytron Homogeniser, the mixture was homogenated. The supernatant obtained after centrifugation at 400×g for 15 min was further centrifuged at 100,000×g for 1 hr to give precipitate of the membrane fraction. […]
The antagonistic activity of the test compound was determined as follows. […] Liquid scintillator (50 ml) was added to the glass filter and the residual radioactivity was determined by a liquid scintillation counter. Binding inhibition (%)=(radioactivity upon addition of compound and MCH−radioactivity upon addition of DMSO solution)/(radioactivity upon addition of MCH−radioactivity upon addition of DMSO solution)×100
From the binding inhibition (%), IC50 of the compound was calculated.

- IC50 [1]: 6 nM
- melting point: 246 to 248 °C
Structure (SMILES): COc1ccc(-c2ccc(C(=O)Nc3ccc4cc(CN5CCCC5)cnc4c3)cn2)cc1 [Example 8, 6-(4-methoxyphenyl)-N-[3-(1-pyrrolidinylmethyl)-7-quinolinyl]nicotinamide]
